Test results as given in patent publication US20180185374A1, “INHIBITORS OF MTOR KINASE AS ANTI-VIRAL AGENTS” (THE TRUSTEES OF PRINCETON UNIVERSITY, priority 2009, published 2018).

Tests used:
γHV68 = γHV68 replication in MEFs, TCID50; type: cell-based, murine gammaherpesvirus 68; conditions: 0.05 PFU/cell, 6 days post infection, rapamycin 20 nM, Torin1 250 nM
cells = conditions: concentrations of up to 500 nM; previous reports; cited from earlier work
4EBP1 = 4EBP1 phosphorylation in MCMV-infected MEFs, Western blot; type: cell-based, mouse; conditions: Torin1 250 nM
Protocol: FIG. 5. […] Fresh serum-free medium containing drugs was added every other day. At the indicated times, cell-free supernatants were harvested, and the amount of virus in the supernatant was quantified by the TCID50 method. Error bars represent the standard errors of the means form two independent experiments performed in duplicate. […] At 48 hpi the phosphorylation state of the indicated mTORC1 targets was analyzed by a Western blot assay by using antibodies to phosphorylated targets (4EBP1-PT^37/46 and rpS6-PS^235/6) and total proteins. The results are representative of three independent experiments.
FIG. 6. mTORC2 and its target, Akt, are not the source of rapamycin-resistant mTOR activity. […] At 6 days post infection the amount of MCMV in cell-free supernatants was determined by the TCID50 method. […] At 48 hpi, the phosphorylation state of mTORC1 targets was assessed by Western blotting using antibodies specific for the indicated proteins. (C) Confirmation of the genotype of Rictor-null MEFs. Total DNA was isolated from wild-type and Rictor-null MEFs, and the genotype was confirmed by use of PCR. (D) Same as above (A) except that Akt1- and Akt2-null MEFs were used. (E) Same as above (B) except that Akt1- and Akt2-null MEFs were used. For B and E, the error bars represent the standard errors of the means from at least two independent experiments, each performed in duplicate. For […], tubulin was assayed as a loading control. […] Protein from wild-type or mutant MEFs was analyzed by Western blotting by use of an antibody specific for Akt.
The identification of the functional roles of proteins in the mTOR signaling pathway has been facilitated by the generation of knockout mouse strains lacking individual mTOR components. […] Also as observed for HCMV (FIG. 4A), MCMV infection induced mTORC1 activity, as measured by the increased phosphorylation of rpS6. […]
We first investigated the requirement for mTORC2 for the replication of MCMV. […] Finally, that 4EBP1 was not detected in lysates of these cells by Western blot assay confirmed the phenotype of the MEFs.

eIF4F complex = assay: m7G-Sepharose cap-binding assay, MCMV-infected MEFs; type: cell-based, mouse; conditions: Torin1 250 nM, 48 hpi
Protocol: FIG. 7. […] At 6 days post infection the amount of MCMV in cell-free supernatants was determined by the TCID50 method. The error bars represent the standard errors of the means from three independent experiments, each performed in duplicate. […] At 48 hpi equal amounts of protein from cell lysates were incubated with m^7G-Sepharose. The presence of eIF4F complex components bound by the cap analog was determined by Western blotting. The results are representative of two independent experiments.
We first investigated the requirement for mTORC2 for the replication of MCMV. […] Finally, the cells were confirmed to lack an intact Rictor locus when assayed by PCR (FIG. 6C). We also employed Akt1/Akt2-null MEFs to evaluate a possible role for the Akt kinase, one of the targets of mTORC2. […] Again, the cells were confirmed to lack Akt by Western blot assay (FIG. 6F). […] 4EBP1 functions to inhibit eIF4F complex assembly unless inactivated by mTORC1-mediated phosphorylation. […] Finally, that 4EBP1 was not detected in lysates of these cells by Western blot assay confirmed the phenotype of the MEFs.

HSV-1 = HSV-1 replication in MEFs, TCID50; type: cell-based, herpes simplex virus type 1; conditions: 72 hpi
HCMV [1] = assay: UL99 late transcript level by qPCR; type: cell-based, human cytomegalovirus; conditions: rapamycin 20 nM, Torin1 250 nM; 3 PFU/cell
HCMV [2] = assay: HCMV entry: cell-associated viral DNA at 2 hpi by real-time PCR; type: cell-based, human cytomegalovirus; conditions: 250 nM, 24 h pretreatment or after adsorption, 3 PFU/cell
Protocol: FIG. 2. […] Serum-starved confluent fibroblasts were infected with HCMV at a multiplicity of 3 PFU/cell. […] Control cultures received the vehicle in which Torin1 was dissolved (NT). At 2 hpi cells were harvested, and cell-associated viral DNA was quantified by real-time PCR analysis. Error bars represent the standard errors of the means from two independent experiments performed in duplicate. […] The level of IE1 was determined at 6 hpi by a Western blot assay using an IE1-specific monoclonal antibody. The image is representative of two independent experiments. […] The expression of a GFP marker gene present in the viral genome was monitored at 24 h after infection in the presence or absence of drug.
Determination of viral DNA and transcript accumulation in infected cells. The accumulation of viral DNA during HCMV infection was monitored by quantitative PCR (qPCR) as described previously (Terhune, et al. (2007) J. Virol. 81:3109-3123).
Briefly, primary human fibroblasts were infected with BADinGFP at a multiplicity of 0.05 PFU/cell. At the indicated times, cells were harvested by scraping them into medium and were stored as frozen cell pellets until analysis. Cell pellets were resuspended in 500 μl of a solution containing 400 mM NaCl, 10 mM Tris (pH 7.5), and 10 mM EDTA. […] For each sample, DNA was quantified by using a NanoDrop spectrophotometer (Thermo Scientific). […]

CCC(=O)N1CCN(c2ccc(-n3c(=O)ccc4cnc5ccc(-c6cnc7ccccc7c6)cc5c43)cc2C(F)(F)F)CC1 [Torin1]
γHV68 replication (γHV68): inhibited both viruses | cell killing (cells): does not kill cells | 4EBP1 phosphorylation (4EBP1; Akt1/Akt2-null MEFs): inhibited | 4EBP1 phosphorylation (4EBP1; Rictor-null MEFs, 48 hpi): effectively inhibited | phosphorylation of 4EBP1 in MCMV-infected MEFs (4EBP1; wild-type MEFs, 48 hpi, rapamycin 20 nM, LY294002 20 μM): inhibited | formation of the eIF4F complex (eIF4F complex; 4EBP1-null MEFs): no such effect was observed | formation of the eIF4F complex (eIF4F complex; control MEFs): inhibited the formation of the eIF4F complex | production of HSV-1 (HSV-1; 4EBP1-null MEFs): failed to inhibit | HSV-1 replication (HSV-1; MEFs, 0.05 PFU/cell, rapamycin 20 nM, Torin1 250 nM): inhibited both viruses | levels of UL99 mRNA (HCMV [1]): decreased the levels of UL99 mRNA | level of cell-associated viral DNA (HCMV [2]): not influenced
